# Data reported in patent US20140162980A1, “NOVEL MICROBIOCIDAL DIOXIME ETHER DERIVATIVES” (SYNGENTA CROP PROTECTION LLC, priority 2010, published 2014).
# Tests used:
# [1] = system: Puccinia recondita f. sp. tritici; test: Puccinia recondita f. sp. tritici / wheat / leaf disc preventative (brown rust); type: in vivo; conditions: foliar, wheat leaf segments cv Kanzler, inoculated 1 day after application, assessed 7-9 days after application, read-out: control of Puccinia recondita f. sp. tritici, preventative (percent disease control compared to untreated)
# Description: Puccinia Recondita f. Sp. Tritici/Wheat/Leaf Disc Preventative (Brown Rust): Wheat leaf segments cultivated variety (cv) Kanzler were placed on agar in 24-well plates and sprayed with formulated test compound diluted in water at an application rate of 200 ppm. The leaf disks were inoculated with a spore suspension of the fungus 1 day after application. The inoculated leaf segments were incubated at 19° C. and 75% relative humidity under a light regime of 12/12 h (light/dark) in a climate cabinet and the activity of a compound was assessed as percent disease control compared to untreated when an appropriate level of disease damage appears in untreated check leaf segments (7-9 days after application).
# [2] = system: Botryotinia fuckeliana (Botrytis cinerea); test: Botryotinia fuckeliana (Botrytis cinerea) / liquid culture (gray mould); type: cell-based; conditions: Vogels broth, 24° C., 3-4 days after application, read-out: control of Botryotinia fuckeliana (inhibition of growth, photometrically)
# Description: Botryotinia Fuckeliana (Botrytis cinerea)/Liquid Culture (Gray Mould): Conidia of the fungus from cryogenic storage were directly mixed into nutrient broth (Vogels broth). After placing a DMSO solution of test compound into a 96-well microtiter plate at an application rate 200 ppm, the nutrient broth containing the fungal spores was added. The test plates were incubated at 24° C. and the inhibition of growth was determined photometrically 3-4 days after application.
# [3] = system: Phaeosphaeria nodorum (Septoria nodorum); test: Phaeosphaeria nodorum (Septoria nodorum) / wheat / leaf disc preventative (glume blotch); type: in vivo; conditions: Parastagonospora nodorum, foliar, wheat leaf segments cv Kanzler, inoculated 2 days after application, assessed 5-7 days after application, read-out: control of Phaeosphaeria nodorum (percent disease control compared to untreated)
# Description: Phaeosphaeria Nodorum (Septoria nodorum)/Wheat/Leaf Disc Preventative (Glume Blotch): Wheat leaf segments cv Kanzler were placed on agar in a 24-well plate and sprayed with formulated test compound diluted in water at an application rate of 200 ppm. The leaf disks are inoculated with a spore suspension of the fungus 2 days after application. The inoculated test leaf disks are incubated at 20° C. and 75% relative humidity under a light regime of 12/12 h (light/dark) in a climate cabinet and the activity of a compound is assessed as percent disease control compared to untreated when an appropriate level of disease damage appears in untreated check leaf disks (5-7 days after application).
# Alternaria solani = Alternaria solani / tomato / leaf disc (early blight); type: in vivo; conditions: foliar, tomato leaf disks cv. Baby, inoculated 2 days after application, assessed 5-7 days after application, read-out: control of Alternaria solani (percent disease control compared to untreated)
# Description: Alternaria Solani/Tomato/Leaf Disc (Early Blight): Tomato leaf disks cv. Baby are placed on agar in multiwell plates (24-well format) and sprayed with the formulated test compound diluted in water at an application rate of 200 ppm. The leaf disks are inoculated with a spore suspension of the fungus 2 days after application. The inoculated leaf disks are incubated at 23° C./21° C.
# [4] = system: Blumeria graminis f. sp. tritici (Erysiphe graminis f. sp. tritici); test: Blumeria graminis f. sp. tritici / wheat / leaf disc preventative (powdery mildew on wheat); type: in vivo; conditions: foliar, wheat leaf segments cv. Kanzler, inoculated 1 day after application, assessed 6-8 days after application, read-out: control of Blumeria graminis (percent disease control compared to untreated)
# Description: Blumeria Graminis f. Sp. Tritici (Erysiphe Graminis f. Sp. Tritici)/Wheat/Leaf Disc Preventative (Powdery Mildew on Wheat):
# Wheat leaf segments cv. Kanzler were placed on agar in a 24-well plate and sprayed with the formulated test compound diluted in water at an application rate of 200 ppm. The leaf disks were inoculated by shaking powdery mildew infected plants above the test plates 1 day after application. The inoculated leaf disks were incubated at 20° C. and 60% relative humidity under a light regime of 24 h darkness followed by 12 h/12 h (dark/light) in a climate chamber and the activity of a compound was assessed as percent disease control compared to untreated when an appropriate level of disease damage appears on untreated check leaf segments (6-8 days after application). The following compounds gave at least 80% control of Blumeria graminis: […]
# Phytophthora infestans = test: whole plant or invertebrate; type: in vivo; conditions: in Solanum lycopersicum, foliar, read-out: control of Phytophthora infestans (percent disease control compared to untreated)
# Plasmopara viticola = test: whole plant or invertebrate; type: in vivo; conditions: foliar, read-out: control of Plasmopara viticola (percent disease control compared to untreated)
# [5] = system: Thanatephorus cucumeris (Rhizoctonia solani); test: Thanatephorus cucumeris (Rhizoctonia solani) / liquid culture (foot rot, damping-off); type: cell-based; conditions: PDB potato dextrose broth, 24° C., 3-4 days after application, read-out: control of Thanatephorus cucumeris (inhibition of growth, photometrically)
# Description: Thanatephorus Cucumeris (Rhizoctonia solani)/Liquid Culture (Foot Rot, Damping-Off): Mycelia fragments of a newly grown liquid culture of the fungus are directly mixed into nutrient broth (PDB potato dextrose broth). After placing a DMSO solution of the test compounds into a 96-well microtiter plate at an application rate 200 ppm, the nutrient broth containing the fungal material was added. The test plates were incubated at 24° C. and the inhibition of growth was determined photometrically 3-4 days after application.
# Pythium ultimum = Pythium ultimum / liquid culture (seedling damping off); type: cell-based; conditions: Globisporangium ultimum, PDB potato dextrose broth, 24° C., 2-3 days after application, read-out: control of Pythium ultimum (inhibition of growth, photometrically)
# Description: Pythium Ultimum/Liquid Culture (Seedling Damping Off): Mycelia fragments and oospores of a newly grown liquid culture of the fungus were directly mixed into nutrient broth (PDB potato dextrose broth). After placing a DMSO solution of test compound into a 96 well microtiter plate at an application rate 200 ppm, the nutrient broth containing the fungal mycelia/spore mixture was added. The test plates were incubated at 24° C. and the inhibition of growth was determined photometrically 2-3 days after application.
# Pyrenophora teres = Pyrenophora teres / barley / leaf disc preventative (net blotch); type: in vivo; conditions: foliar, barley leaf segments cv Hasso, inoculated two days after application, assessed 5-7 days after application, read-out: control of Pyrenophora teres (disease control compared to untreated)
# Description: Pyrenophora Teres/Barley/Leaf Disc Preventative (Net Blotch): Barley leaf segments cv Hasso are placed on agar in a 24-well plate and sprayed with formulated test compound diluted in water at an application rate of 200 ppm. The leaf segments are inoculated with a spore suspension of the fungus two days after application of the test solution. The inoculated leaf segments are incubated at 20° C. and 65% relative humidity under a light regime of 12/12 h (light/dark) in a climate cabinet and the activity of a compound is assessed as disease control compared to untreated when an appropriate level of disease damage appears in untreated check leaf segments (5-7 days after application).
# [6] = system: Magnaporthe grisea (Pyricularia oryzae); test: whole plant or invertebrate; type: in vivo; conditions: foliar, read-out: control of Magnaporthe grisea (percent disease control compared to untreated)
# [7] = system: Puccinia recondita f. sp. tritici; test: Puccinia recondita f. sp. tritici / wheat / leaf disc curative (brown rust); type: in vivo; conditions: foliar, 200 ppm applied 1 day after inoculation, wheat leaf segments cv Kanzler, assessed 6-8 days after application, read-out: control of Puccinia recondita f. sp. tritici, curative (percent disease control compared to untreated)
# Description: Puccinia Recondita f. Sp. Tritici/Wheat/Leaf Disc Curative (Brown Rust): Wheat leaf segments cv Kanzler were placed on agar in 24-well plates. The leaf segments were inoculated with a spore suspension of the fungus. The plates were stored in darkness at 19° C. and 75% relative humidity. The formulated test compound diluted in water was applied at an application rate of 200 ppm 1 day after inoculation.
# Sclerotinia sclerotiorum = Sclerotinia sclerotiorum / liquid culture (cottony rot); type: cell-based; conditions: PDB potato dextrose broth, 24° C., 3-4 days after application, read-out: control of Sclerotinia sclerotiorum (inhibition of growth, photometrically)
# Description: Sclerotinia Sclerotiorum/Liquid Culture (Cottony Rot) Mycelia fragments of a newly grown liquid culture of the fungus are directly mixed into nutrient broth (PDB potato dextrose broth). After placing a (DMSO) solution of test compound into a microtiter plate at an application rate 200 ppm (96-well format) the nutrient broth containing the fungal material is added. The test plates are incubated at 24° C. and the inhibition of growth is determined photometrically 3-4 days after application.
SMILES,melting point,pest or weed control at 200 ppm [1],inhibition at 200 ppm [2],pest or weed control at 200 ppm [3],pest or weed control at 200 ppm (Alternaria solani),pest or weed control at 200 ppm [4],pest or weed control at 200 ppm (Phytophthora infestans),pest or weed control at 200 ppm (Plasmopara viticola),inhibition at 200 ppm [5],inhibition at 200 ppm (Pythium ultimum),pest or weed control at 200 ppm (Pyrenophora teres),pest or weed control at 200 ppm [6],pest or weed control at 200 ppm [7],inhibition at 200 ppm (Sclerotinia sclerotiorum)
c1ccc(-c2c3c(nc4ccccc24)/C(=N/OCCCO/N=C2\CCCc4c2nc2ccccc2c4-c2ccccc2)CCC3)cc1 [P.26],205 to 210 °C,,,,,,,,,,,,,
Cc1ccc2c(n1)/C(=N/OCC(C)(C)CO/N=C1\CCCc3cc4c(nc31)CCCC4)CCC2 [P.40],,≥ 80%,≥ 80%,≥ 80%,≥ 80%,≥ 80%,≥ 80%,≥ 80%,≥ 80%,≥ 80%,≥ 80%,≥ 80%,≥ 80%,≥ 80%
Cc1ccc2c(n1)/C(=N/OCCCO/N=C1\CCCc3cc4c(nc31)CCCC4)CCC2 [P.39],,≥ 80%,≥ 80%,≥ 80%,≥ 80%,≥ 80%,≥ 80%,≥ 80%,≥ 80%,≥ 80%,≥ 80%,≥ 80%,≥ 80%,≥ 80%
Cc1ccc2c(n1)/C(=N/OCC(C)(C)CO/N=C1\CCCc3c1nc1ccccc1c3C)CCC2 [P.38],,≥ 80%,≥ 80%,≥ 80%,≥ 80%,≥ 80%,≥ 80%,≥ 80%,≥ 80%,≥ 80%,≥ 80%,≥ 80%,≥ 80%,≥ 80%
c1c2c(nc3c1CCC/C3=N\OCCCO/N=C1\CCCc3cc4c(nc31)CCCC4)CCCC2 [P.51],,≥ 80%,≥ 80%,≥ 80%,,≥ 80%,≥ 80%,,≥ 80%,≥ 80%,≥ 80%,≥ 80%,,≥ 80%
Cc1ccc2c(n1)/C(=N/OCC(C)(C)CO/N=C1\CCCc3c(CF)cc(C)nc31)CCC2 [P.44],,≥ 80%,≥ 80%,≥ 80%,,≥ 80%,,,,≥ 80%,≥ 80%,≥ 80%,≥ 80%,≥ 80%
Cc1ccc2c(n1)/C(=N/OCCCO/N=C1\CCCc3c1nc1ccccc1c3C)CCC2 [P.37],,≥ 80%,≥ 80%,≥ 80%,≥ 80%,≥ 80%,,≥ 80%,≥ 80%,≥ 80%,≥ 80%,≥ 80%,≥ 80%,≥ 80%
c1c2c(nc3c1CCC/C3=N\OCC1(CO/N=C3\CCCc4cc5c(nc43)CCCC5)CC1)CCCC2 [P.49],,≥ 80%,≥ 80%,≥ 80%,,≥ 80%,≥ 80%,,≥ 80%,,,≥ 80%,,≥ 80%
Clc1ccc2c(n1)/C(=N/OCC1(CO/N=C3\CCc4ccc(Cl)nc43)CC1)CC2 [P.21],170 to 173 °C,,,,,,,,,,,,,
